Converted amounts (≈) assume the structure as drawn.
Assays:
Type in all cases: cell-based
mouse sarcoma 180 = experiment: In vitro anti-proliferative activity against mouse tumor cell lines, Test Method 2 (sarcoma 180); details: Sarcoma 180, 48 hours, 37° C.
Protocol: (§1) In vitro anti-proliferative activity against mouse tumor cell lines
(§2) 1. Mouse lymphoma cell line P388 or mouse sarcoma 180 is suspended in RPMI1640 medium supplemented with 10% fetal bovine serum and 2 μM 2-hydroxyethyl disulfide to a concentration of 10^5 cells/ml. Test compounds are serially diluted with the same medium.
(§3) 2. 0.5 ml of the cell suspension thus obtained is admixed with 0.5 ml of the medium or the test compound solution, and the mixture is incubated in a 5% CO2 -incubator at 37° C. for 48 hours. The incubation is carried out in glass culture tubes.
(§4) 3. At the end of incubation, the number of the cells in each tube is counted with a Coulter counter (Model ZB, Coulter Electronics), and the growth inhibition percent (%) is calculated from the same equation as in Test Method 1.
(§5) 4. The IC50 value is obtained as in Test Method I.

[1] = tested on: L1210 mouse leukemia cells; experiment: In vitro anti-proliferative activity against mouse tumor cell lines, Test Method 1 (L1210); details: L1210, 48 hours, 37° C.
Protocol: as §1
1. L1210 mouse leukemia cells are cultivated in RPMI1640 medium supplemented with 10% fetal bovine serum, and the resultant cells are diluted with the same medium in the logarithmic growth phase to a concentration of 1.6×10^5 cells/ml.
2. To test tubes each containing 0.9 ml of the above obtained diluted cell suspension is added 0.1 ml each of test solutions serially diluted with a culture medium or phosphate-buffered saline (PBS), and the mixture is incubated in a 2% CO2 -incubator at 37° C. for 48 hours.
3. After incubation, the number of the cells in each tube is counted with a Coulter counter (Model ZB, Coulter Electronics), and the growth inhibition percent (%) of the cells at each concentration of a test compound is calculated from the following equation: [formula] Tx: Number of the cells in a test tube containing a test compound as counted upon completion of the incubation (cells/ml)
Cx: Number of the cells in a test tube containing no test compound as counted upon completion of the incubation (cells/ml)
Co: Number of the cells in a test tube containing no test compound as counted at the initiation of the incubation (cells/ml)
4. The concentration of the test compound, which causes cell growth inhibition by 50%, is determined by the graph showing the relationship between the growth inhibition percent and the concentration of the test compound, and is defined as 50% inhibitory concentration (IC50).

[2] = tested on: Mouse lymphoma cell line P388; experiment: In vitro anti-proliferative activity against mouse tumor cell lines, Test Method 2 (P388); details: P388, 48 hours, 37° C.
Protocol: as §1, §2, §3, §4, §5

| Structure (SMILES) | IC50 (mouse sarcoma 180) [µg/mL] | IC50 [1] [µg/mL] | IC50 [2] [µg/mL] |
| --- | --- | --- | --- |
| C#Cc1[nH]cnc1C#N [5-ethynylimidazole-4-carbonitrile] | 9.92 (≈ 84.7 µM) | 2.9 (≈ 24.8 µM) | 14.1 (≈ 120 µM) |
| C#Cc1c(C#N)ncn1[C@@H]1O[C@H](CO)[C@@H](O)[C@H]1O [5-ethynyl-1-β-D-ribofuranosylimidazole-4-carbonitrile] | 0.8 (≈ 3.21 µM) | 1.9 (≈ 7.62 µM) | 0.93 (≈ 3.73 µM) |
| NC(=O)c1ncn([C@@H]2O[C@H](CO)[C@@H](O)[C@H]2O)c1C#CCCO [5-(4-hydroxy-1butyn-1-yl)-1β-D-ribofuranosylimidazole-4-carboxamide] |  | 1.28 (≈ 4.11 µM) |  |
| C#Cc1[nH]cnc1C(N)=O [5-ethynylimidazole-4-carboxamide] | 1.39 (≈ 10.3 µM) | 4 (≈ 29.6 µM) | 4.37 (≈ 32.3 µM) |

Results, then the molecule that gave them:

| IC50 (mouse sarcoma 180) [µg/mL] | IC50 [1] [µg/mL] | IC50 [2] [µg/mL] | Structure (SMILES) |
| --- | --- | --- | --- |
|  | 2.92 (≈ 9.44 µM) |  | CCCC#Cc1c(C(N)=O)ncn1[C@@H]1O[C@H](CO)[C@@H](O)[C@H]1O [R = [drawing 28]; A = CONH2; R^1 = C3, 5-(1-pentyn-1-yl)-1-β-D-ribofuranosylimidazole-4-carboxamide] |
|  | 3.3 (≈ 11.3 µM) |  | N#Cc1ncn([C@@H]2O[C@H](CO)[C@@H](O)[C@H]2O)c1C#CCCO [R = [drawing 28]; A = CN; R^1 = CH2 CH2 OH, 5-(4-hydroxy-1-butyn-1yl)-1-β-D-ribofuranosylimidazole-4-carbonitrile] |
|  | 4.1 (≈ 14.7 µM) |  | N#Cc1ncn([C@@H]2O[C@H](CO)[C@@H](O)[C@H]2O)c1C#CCO [R = [drawing 28]; A = CN; R^1 = CH2 OH, 5-(3-Hydroxy-1-propyn-1-yl)-1-β-D-ribofuranosylimidazole-4-carbonitrile] |
|  | 0.7 (≈ 2.35 µM) |  | NC(=O)c1ncn([C@@H]2O[C@H](CO)[C@@H](O)[C@H]2O)c1C#CCO [R = [drawing 28]; A = CONH2; R^1 = CH2 OH, 5-(3-Hydroxy-1-propyn-1-yl)-1-β-D-ribofuranosylimidazole-4-carboxamide] |

Reference: patent US5059590A, “Imidazole derivatives, process for production thereof, and use thereof” (Yamasa Shoyu Kabushiki Kaisha, priority 1988, dated 1991)
